Measured values taken from US6492344B1, “Syndecan enhancer element and syndecan stimulation of cellular differentiation” (Biotie Therapies Corp., priority 1993, dated 2002).

Assays:
[1] = system: syndecan-1 enhancer element (pXb6); experiment: CAT reporter assay of syndecan upstream fragment pXb6 in 3T3 NIH cells; assay type: cell-based, mouse; conditions: 3T3NIH cells transiently transfected; FGF-2 alone
Excerpt: Determination of Mouse Syndecan Promoter and Enhancer Activities. The mouse syndecan-1 gene has been cloned and characterized up to −10 kbs upstream from the transcription start site. To determine the specific activities of different proximal promoter regions (up to −2 kbs from the start site) and enhancer regions (from −2 to −10 kbs) we have made plasmid constructs in which these regions were cloned into pCAT basic or pCAT promoter vectors, containing the CAT reporter gene. The reporter CAT gene produces the enzyme chloramphenicol acetyltransferase, which transfers the n-butyryl moiety of n-butyryl CoA to chloramphenicol. […]
The plasmid constructs were transiently transfected into eukaryotic cells by calcium phosphate precipitation simultaneously with a β-Galactosidase expressing vector to determine transfection efficiency. […] This was incubated from 2 hours to overnight and the color reaction was measured spectrophotometrically at 420 nm.
CAT activity was determined by adding 0.25 M Tris buffer, 25 ng n-butyryl CoA and 0.0626 μCi of ^14C-chloramphenicol to the cytoplasmic extract. Samples were incubated overnight, extracted with xylene and the radioactivity present was measured by scintillation counting. CAT activity was corrected for transfection efficiency as determined by assays of β-galactosidase activity. […]

[2] = system: nuclear factors binding FiRE motifs 1-5; assay type: cell-based, mouse
Protocol: The Enhancer Comprises Five DNA Binding Motifs. Plasmid pFiRE was end-labeled using Klenow fragment and […]. DNAse I footprinting was performed with labeled pFiRE vector alone (naked), together with FGF-induced nuclear extracts (FGF-2), and together with non-induced nuclear extracts (control). To obtain nuclear extracts, NIH3T3 cells were plated on 16 cm dishes and treated with or without FGF-2 for 1 day. Nuclear proteins were extracted using a modification described by Lee et al., Gene Anal. Techn. 5:22-31 (1988). Protein concentrations were measured by the Bradford method.
In a 12 μl reaction, 5 μg of the nuclear extracts were incubated with labeled oligonucleotide, 2 μg of poly-d[I-C] and 2×reaction buffer, i.e., […], pH 7.5; 100 mM NaCl; 2 mM EDTA; and 10% glycerol for 15 minutes at room temperature. Non-labeled competitor oligonucleotides were used at 100-fold molar excess. The complexes were analyzed by electrophoresis in a 4.5% polyacrylamide gel. For supershifts, 0.1 μg of specific antibody was added to the reaction 15 minutes before the labeled oligonucleotide. […]
These motifs was further analyzed by competing the binding of nuclear factors with a molar excess of specific (s) and non-specific (ns) oligonucleotides. […] The resulting complexes were analyzed by the gel retardation analysis described above. […]

MCA3D cells = experiment: Cell proliferation of MCA3D keratinocytes; assay type: cell-based; conditions: MCA3D mouse keratinocytes
[3] = system: FGF-inducible Response Element (FiRE); experiment: pFiRE CAT reporter in syndecan-1 transfected 3T3 cells (3T3 1.5); assay type: cell-based, mouse; conditions: 3T3 1.5 cells expressing high levels of syndecan-1, versus wild type 3T3
Excerpt: The Enhancer is Not Functional in 3T3 Cells Expressing High Levels of Syndecan-1. Syndecan-1 transfected 3T3 cells (3T3 1.5) and wild type 3T3 cells were transiently transfected with the pFiRE construct, treated with FGF or a negative control, and analyzed for reporter gene (CAT) expression. The results are depicted in FIG. 16. The closed columns indicate relative CAT activity in control cells (without FGF treatment) while the labeled columns depict relative CAT activity in FGF-treated cells.

Substance: FGF-2: Basic fibroblast growth factor (FGF-2 or bFGF); recombinant human
- CAT gene expression from plasmid pXb6 [1]: increase in CAT gene expression
- nuclear protein binding to motifs 1 and 2 [2]: do not show binding to an FGF-2 inducible factor
- nuclear protein binding to motifs 3, 4 and 5 [2]: bind at least one specific FGF-2 inducible nuclear protein
- cell proliferation (MCA3D cells): stimulated cell proliferation
- activation of CAT expression from pFiRE [3]: significantly reduced
